Data published in patent US20100016232A1, “Treatment Of Inflammatory Diseases With Mammal Beta Defensins” (Novozymes A/S, priority 2008, published 2010).
Where no end group is shown, it is not given here.

Columns and labels:
[1] = test system: PBMC; experiment: PBMC viability, MTS assay; assay type: cell-based, human; conditions: 24 h
Procedure: (§1) Peripheral blood was drawn from healthy volunteers (with approval from the relevant ethical committee in Denmark). Heparinized blood was diluted 1/1 v/v with RPMI and were subjected to Ficoll density centrifugation within 2 h of drawing. Plasma was collected from the top from individual donors and was kept on ice until it was used at 2% in the culture medium (autologous culture medium). Isolated PBMC were resuspended in autologous culture medium and seeded in 96-well culture plates with 255.000 cells per well in a total of 200 μl. […] The concentrations used for stimulation were optimized on 3 different donors in initial experiments, for LPS two different concentrations were used to be sure to be on a cytokine level that is possible to modulate. In some experiments PBMC were treated with Dexamethason and Indomethacin alone and together with LPS or LTA as a control on downregulation of inflammatory cytokines. The supernatants were collected after incubation at 37° C. for 24 hours, and stored at −80° C. until cytokine measurement. Viability was measured by Alamar Blue (Biosource, DALL 1100) in all experiments and in some cases also by MTS (Promega) according to manufacturer's instruction and was in some experiments also judged by counting of the cells by a Nucleocounter.

[2] = test system: IL-10 secretion from PBMC; experiment: IL-10 secretion from PBMC, ELISA; assay type: cell-based, human
Procedure: as §1
(§2) Cytokine production in supernatants was measured by flow cytometry with a human inflammation cytometric bead array (CBA) according to manufacturer's instructions (BD) on a FACSarray flow cytometer. The following cytokines were measured: IL-8, IL-1β, IL-10, TNF, IL-12 p70, IL-6. In some experiments, cytokines were measured by ELISA kits from R&D systems (IL-10, TNF-α, IL-1β) according to the manufacturer' instruction.
In Tables 6, 7 and 8, supernatants from another donor were analysed for cytokines by ELISA instead of by a cytometric bead array by flowcytometry and here the same were observed, although the sensitivity of the assay is lower and the detection limit much higher and therefore the effects were not as significant.

[3] = test system: TNF production in supernatants from immature dendritic cells; experiment: TNF production, immature dendritic cells (MUTZ-3 derived); assay type: cell-based, human
Procedure: To generate a dendritoid cell line, the human myeloid leukaemia cell lines MUTZ-3 (1×10^5 cells/ml) was differentiated for 7 days in the presence of rhGM-CSF (150 ng/ml) and rhIL-4 (50 ng/ml) into immature DCs. Medium was exchanged every 2-3 days.
as §2

[4] = test system: IL-23, human PBMC; experiment: IL-23 in supernatants of human PBMC, ELISA; assay type: cell-based
Procedure: as §1, with “Nucleocounter. […]” for “Nucleocounter.”
Cell culture supernatants were collected and stored at −80° C. Amounts of IL-23 was measured by standard sandwich ELISA using commercially available antibodies and standards according to the manufacturer's protocols (eBioscience).

[5] = test system: DSS-induced colitis in the mouse; experiment: 10-day DSS-induced colitis, colon histological score (Example 5); assay type: in vivo; conditions: day 10
From the text: Animals were divided into 5 experimental groups.
Their colons were removed and their length and weight measured after exclusion of the caecum.
Two sections (proximal and distal) of colon were taken from each animal and preserved in neutral buffered formalin for subsequent histological analysis (haematoxylin and eosin staining) according to the following scoring system:
Two sections (proximal and distal) of colon were taken from each animal, processed for histological analysis (haematoxylin and eosin staining) and scored by a blind observer according to the histological scoring system described above.

hBD2: human beta defensin 2, SEQ ID NO:2; produced recombinantly in E. coli (Example 1); hBD2 of Tables 16-18 was prepared by chemical synthesis (GIGDPVTCLKSGAICHPVFCPRRYKQIGTCGLPGTKCCKKP; ends and bridges not checked; cysteine pairing not given here; listed as Homo sapiens)
Viability, MTS ([1]; LPS 0.6 ng/ml, hBD2 1 μg/ml): 1.5 Abs 490 nm | Viability, MTS ([1]; LPS 0.6 ng/ml, hBD2 10 μg/ml): 2.0 Abs 490 nm | Viability, MTS ([1]; LPS 0.6 ng/ml, hBD2 100 μg/ml): 1.6 Abs 490 nm | Viability, MTS ([1]; LPS 20 ng/ml, hBD2 1 μg/ml): 1.6 Abs 490 nm | Viability, MTS ([1]; LPS 20 ng/ml, hBD2 10 μg/ml): 1.8 Abs 490 nm | Viability, MTS ([1]; LPS 20 ng/ml, hBD2 100 μg/ml): 1.9 Abs 490 nm | Viability, MTS ([1]; Medium, hBD2 1 μg/ml): 1.3 Abs 490 nm | Viability, MTS ([1]; Medium, hBD2 10 μg/ml): 1.5 Abs 490 nm | Viability, MTS ([1]; Medium, hBD2 100 μg/ml): 1.2 Abs 490 nm | IL-10 ([2]; LPS 0.6 ng/ml, hBD2 10 μg/ml): 0.04 ng/mL | IL-10 ([2]; LPS 0.6 ng/ml, hBD2 100 μg/ml): 0.14 ng/mL | IL-10 ([2]; LPS 20 ng/ml, hBD2 10 μg/ml): 0.34 ng/mL | IL-10 ([2]; LPS 20 ng/ml, hBD2 100 μg/ml): 0.46 ng/mL | TNF ([3]; LPS 1.5 μg/ml, hBD2 1 μg/ml): 18.04 pg/mL | TNF ([3]; LPS 1.5 μg/ml, hBD2 10 μg/ml): 13.8 pg/mL | TNF ([3]; LPS 1.5 μg/ml, hBD2 100 μg/ml): 7.66 pg/mL | TNF ([3]; LTA 1.5 μg/ml, hBD2 1 μg/ml): 0.00 pg/mL | TNF ([3]; LTA 1.5 μg/ml, hBD2 10 μg/ml): 2.76 pg/mL | TNF ([3]; LTA 1.5 μg/ml, hBD2 100 μg/ml): 5.22 pg/mL | TNF ([3]; Medium, hBD2 1 μg/ml): 4.64 pg/mL | TNF ([3]; Medium, hBD2 10 μg/ml): 1.89 pg/mL | TNF ([3]; Medium, hBD2 100 μg/ml): 0.00 pg/mL | IL-23 ([4]; Control (medium), treatment 1 μg/ml): 218 pg/mL | IL-23 ([4]; Control (medium), treatment 10 μg/ml): 211 pg/mL | IL-23 ([4]; Control (medium), treatment 100 μg/ml): 207 pg/mL | IL-23 ([4]; LPS 0.6 ng/ml, treatment 1 μg/ml): 338 pg/mL | IL-23 ([4]; LPS 0.6 ng/ml, treatment 10 μg/ml): 462 pg/mL | IL-23 ([4]; LPS 0.6 ng/ml, treatment 100 μg/ml): 484 pg/mL | IL-23 ([4]; LPS 20 ng/ml, treatment 1 μg/ml): 263 pg/mL | IL-23 ([4]; LPS 20 ng/ml, treatment 10 μg/ml): 295 pg/mL | IL-23 ([4]; LPS 20 ng/ml, treatment 100 μg/ml): 488 pg/mL | IL-23 ([4]; LTA 5 μg/ml, treatment 1 μg/ml): 383 pg/mL | IL-23 ([4]; LTA 5 μg/ml, treatment 10 μg/ml): 438 pg/mL | IL-23 ([4]; LTA 5 μg/ml, treatment 100 μg/ml): 810 pg/mL | Histology Score Distal Colon ([5]; 0.1 mg/kg i.v. daily): 3.67 | Histology Score Distal Colon ([5]; 1 mg/kg i.v. daily): 4.13 | Histology Score Distal Colon ([5]; 10 mg/kg i.v. daily): 4.78
